What was measured:
TIE2 = biological target: T1, TIE2 (Homo sapiens, UniProt Q02763); assay: Kinase inhibition, Mobility Shift Assay/IMAP, TIE2; type: biochemical
T1 construct: purchased BPS 40270
From the text: (§1) This assay directly monitored the ability of compounds to inhibit kinase phosphorylation by measuring non-phosphorylated and phosphorylated substrates in kinase reactions by using Mobility Shift Assays/IMAP™ analysis.
(§2) Read the conversion ratio data on CaliperEZ Reader II. Convert conversion rates into inhibition ratio data.
(§3) “Min” indicates the readout of the control well without the addition of enzymes; and “Max” indicates the readout of the control well with the addition of DMSO Fit IC50 values with XL Fit excel add-in version […].
(§4) X indicates the log value of compound concentration, and Y indicates the inhibition ratio (% inhibition).

VEGFR2 = VEGFR2 (Homo sapiens, UniProt P35968); assay: Kinase inhibition, Mobility Shift Assay/IMAP, VEGFR2; type: biochemical; design: purchased Carna 08-191
Chain of VEGFR2 (P35968 790-1356 limits assumed): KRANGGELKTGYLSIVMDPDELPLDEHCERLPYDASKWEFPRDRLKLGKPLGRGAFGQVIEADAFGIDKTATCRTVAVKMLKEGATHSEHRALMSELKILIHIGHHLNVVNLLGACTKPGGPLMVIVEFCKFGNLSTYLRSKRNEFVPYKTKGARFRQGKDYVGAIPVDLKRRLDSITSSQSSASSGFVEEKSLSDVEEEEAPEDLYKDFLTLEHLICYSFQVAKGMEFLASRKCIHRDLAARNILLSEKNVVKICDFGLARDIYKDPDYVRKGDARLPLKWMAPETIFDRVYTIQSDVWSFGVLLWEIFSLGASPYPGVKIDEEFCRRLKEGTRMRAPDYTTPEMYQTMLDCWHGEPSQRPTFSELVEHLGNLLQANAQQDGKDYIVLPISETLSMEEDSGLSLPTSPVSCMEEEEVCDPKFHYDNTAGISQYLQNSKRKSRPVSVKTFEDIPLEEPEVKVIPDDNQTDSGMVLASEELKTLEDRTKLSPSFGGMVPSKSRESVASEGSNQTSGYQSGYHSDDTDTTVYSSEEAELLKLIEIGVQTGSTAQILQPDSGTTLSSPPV
From the text: as §1, §2, §3, §4

melanin = assay: Binding capacity of compounds to melanin; type: in vitro ADME, cuttlefish (Sepia officinalis); conditions: cuttlefish (Sepia officinalis), melanin suspension (1 mg/mL); 1 mg/mL melanin in PBS pH 7.4, 2 μM compound, 2 h at 37° C.; read-out: Fu % (percentage of free drug)
From the text: Pigmented eye tissues contain melanin in intracellular melanosomes. Drugs bind to melanin to varying degrees, ranging from non-binding to extensive binding. Therefore, melanin binding is an important feature that affects drug delivery and biodistribution in the eye. The binding capacity of the compound to the melanin must be considered in the development of ophthalmic drugs.
Melanin was derived from the melanin of cuttlefish (Sepia officinalis) and was commercially available from Sigma Aldrich (St Louis, MO).
First, prepare 1 mg/mL melanin suspension with PBS (pH 7.4). As a washing step for the matrix, centrifuge the suspended particles for 5 min at 3000 rpm. Resuspend the resulting particles in a fresh PBS buffer, heat to 37° C. over continuous shaking and incubate it for 1 h. Accurately pipette 2 μL of the test stock solution (0.1 mM) into 98 μL of melanin suspension (1 mg/mL) to achieve a final incubation concentration of 2 μM. Similarly, accurately pipette 2 μL of the stock solution (0.1 mM) to 98 μL of PBS buffer (containing 0.1% BSA) as a blank control sample. Incubate the samples in a shaker (80-90 rpm) for 2 h at 37° C. Then, centrifuge the samples at room temperature. Pipette 50 μL of the supernatant and add 50 μL of precipitant (containing an internal standard). After protein precipitation of all the above samples, centrifuge the samples to collect the supernatants, dilute the supernatants with water (if necessary) and inject them for analysis. At the same time, measure the positive controls, including the high-binding compounds Sunitinib and chloroquine and the low-binding compound celecoxib. Establish an LC-MS/MS method for determining compound concentrations, and calibrate the peak area ratio of analyte/internal standard (Analyte/AIS) in the measured sample by the dilution factor to take it as an alternative concentration for the sample for data processing. The binding rate (Fb) of a compound in melanin was calculated as: […]
Ctest was the concentration of the compound in the melanin-incubated sample or the peak area ratio of the test compound to the internal standard. Ccontrol was the concentration of the compound in the blank control sample or the peak area ratio of the test compound to the internal standard. […]

EGFR = biological target: T2, EGFR (Homo sapiens, UniProt P00533); assay: Kinase inhibition, Mobility Shift Assay/IMAP, EGFR; type: biochemical
T2 construct: purchased Carna 08-115
T2 sequence (P00533 669-1210 limits assumed): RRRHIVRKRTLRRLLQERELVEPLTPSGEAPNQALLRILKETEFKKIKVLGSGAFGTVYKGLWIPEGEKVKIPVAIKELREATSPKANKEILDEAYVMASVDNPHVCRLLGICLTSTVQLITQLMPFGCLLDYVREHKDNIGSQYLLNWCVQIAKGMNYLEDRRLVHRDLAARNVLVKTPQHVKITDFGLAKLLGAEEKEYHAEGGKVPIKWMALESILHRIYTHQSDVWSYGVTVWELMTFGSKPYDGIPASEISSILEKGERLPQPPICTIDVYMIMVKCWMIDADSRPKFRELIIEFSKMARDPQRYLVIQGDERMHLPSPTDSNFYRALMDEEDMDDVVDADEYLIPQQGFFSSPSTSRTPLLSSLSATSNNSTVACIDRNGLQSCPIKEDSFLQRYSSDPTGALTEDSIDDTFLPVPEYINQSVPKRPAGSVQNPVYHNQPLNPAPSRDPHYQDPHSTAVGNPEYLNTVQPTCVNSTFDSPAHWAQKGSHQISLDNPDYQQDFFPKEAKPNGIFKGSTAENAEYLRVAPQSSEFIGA
From the text: as §1, §2, §3, §4

T1 sequence (Q02763 23-1124): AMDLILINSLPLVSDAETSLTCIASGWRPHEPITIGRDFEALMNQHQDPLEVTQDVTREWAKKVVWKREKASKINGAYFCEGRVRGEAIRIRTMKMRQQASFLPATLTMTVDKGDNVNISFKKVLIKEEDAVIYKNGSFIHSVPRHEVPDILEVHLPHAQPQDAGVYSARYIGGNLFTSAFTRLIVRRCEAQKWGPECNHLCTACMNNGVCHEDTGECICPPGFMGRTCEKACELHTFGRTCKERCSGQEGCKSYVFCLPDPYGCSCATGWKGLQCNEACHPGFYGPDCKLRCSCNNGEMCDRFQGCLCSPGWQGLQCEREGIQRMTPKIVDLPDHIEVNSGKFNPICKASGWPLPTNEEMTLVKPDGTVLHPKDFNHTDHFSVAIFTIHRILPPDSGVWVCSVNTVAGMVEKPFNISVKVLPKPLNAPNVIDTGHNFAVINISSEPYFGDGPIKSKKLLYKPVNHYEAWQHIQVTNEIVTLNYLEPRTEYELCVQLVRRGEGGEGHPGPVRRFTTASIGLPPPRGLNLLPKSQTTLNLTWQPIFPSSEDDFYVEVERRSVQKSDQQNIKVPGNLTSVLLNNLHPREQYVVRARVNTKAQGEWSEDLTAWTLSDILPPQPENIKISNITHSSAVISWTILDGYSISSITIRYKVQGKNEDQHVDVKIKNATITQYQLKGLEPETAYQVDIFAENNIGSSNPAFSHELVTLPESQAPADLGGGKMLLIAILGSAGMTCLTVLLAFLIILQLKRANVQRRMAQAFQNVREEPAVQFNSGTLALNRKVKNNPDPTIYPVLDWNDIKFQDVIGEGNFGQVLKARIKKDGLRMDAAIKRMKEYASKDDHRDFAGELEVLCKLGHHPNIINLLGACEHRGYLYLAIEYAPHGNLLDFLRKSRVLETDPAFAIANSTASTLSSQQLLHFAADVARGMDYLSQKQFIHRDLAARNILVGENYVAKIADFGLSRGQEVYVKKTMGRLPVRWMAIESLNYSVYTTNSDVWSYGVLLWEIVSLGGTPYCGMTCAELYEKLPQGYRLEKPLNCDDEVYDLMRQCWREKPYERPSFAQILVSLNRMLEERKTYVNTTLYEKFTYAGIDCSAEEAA

SMILES | IC50 (TIE2) [nM] | IC50 (VEGFR2) [nM] | fraction unbound at 2 h, 2 μM (melanin) | IC50 (EGFR) [nM]
NC(=O)c1c(OCc2c(F)cc(Br)cc2F)nsc1Nc1cncc(OCCN2CCCC2)c1 [Compound T045, 3-((4-bromo-2,6-difluorobenzyl)oxy)-5-((5-(2-(pyrrolidin-1-yl)ethoxy)pyridin-3-yl)amino)isothiazole-4-carboxamide] | 230 | 22.1 | – | –
NC(=O)c1c(OCc2cc(Cl)c3cncn3c2)nsc1NC(=O)NCCCCN1CCCC1 [Compound T051, 3-((8-chloroimidazo[1,5-a]pyridin-6-yl)methoxy)-5-(3-(4-(pyrrolidin-1-yl)butyl)ureido)isothiazole-4-carboxamide] | 3210 | – | – | –
COc1cc(COc2nsc(NC(=O)NCCCCN3CC[C@H](F)C3)c2C(N)=O)cc(OC)c1 [Compound T062, (S)-3-((3,5-dimethoxybenzyl)oxy)-5-(3-(4-(3-fluoropyrrolidin-1-yl)butyl)ureido)isothiazole-4-carboxamide] | – | 58.8 | 0.0195 | > 60000
CCOc1ccc(F)c(COc2nsc(NC(=O)NCCCCN3CCCC3)c2C(N)=O)c1 [Compound T096, 3-((5-ethoxy-2-fluorobenzyl)oxy)-5-(3-(4-(pyrrolidin-1-yl)butyl)ureido)isothiazole-4-carboxamide] | – | – | 0.0792 | –
NC(=O)c1c(OCc2ccc3c(c2)OCCC3)nsc1NC(=O)NCCCCN1CCCC1 [Compound T097, 3-(chroman-7-ylmethoxy)-5-(4-pyrrolidin-1-ylbutylcarbamoylamino)isothiazole-4-carboxamide] | – | – | 0.0817 | –
NC(=O)c1c(OCc2cc(C(=O)NC3CC3)ccc2F)nsc1NC(=O)NCCCCN1CC[C@H](O)C1 [Compound T099] | – | – | 0.0884 | –
NC(=O)c1c(OCc2cc(C(=O)NC3CC3)ccc2F)nsc1NC(=O)NCCCN1CC[C@H](O)C1 [Compound T105, 3-[[5-(cyclopropylcarbamoyl)-2-fluoro-phenyl]methoxy]-5-[3-[(3S)-3-hydroxypyrrolidin-1-yl]propylcarbamoylamino]isothiazole-4-carboxamide] | – | 1.6 | 0.0316 | 11900
NC(=O)c1c(OCc2cc(C(=O)NC3CC3)ccc2F)nsc1NC(=O)NCCCN1CC[C@@H](O)C1 [Compound T106, 3-[[5-(cyclopropylcarbamoyl)-2-fluoro-phenyl]methoxy]-5-[3-[(3R)-3-hydroxypyrrolidin-1-yl]propylcarbamoylamino]isothiazole-4-carboxamide] | – | 1.64 | 0.0172 | 20100
COc1ccc(F)c(COc2nsc(NC(=O)NCCC3CCN(C)CC3)c2C(N)=O)c1F [Compound T109, 3-[(2,6-difluoro-3-methoxy-phenyl)methoxy]-5-[2-(1-methyl-4-piperidyl)ethylcarbamoylamino]isothiazole-4-carboxamide] | – | 13.8 | 0.0435 | 7450
CN1CCN(CCCNC(=O)Nc2snc(OCc3cccc(C(=O)CC4CC4)c3)c2C(N)=O)CC1 [Compound T110, 3-[[3-(2-cyclopropylacetyl)phenyl]methoxy]-5-[3-(4-methylpiperazin-1-yl)propylcarbamoylamino]isothiazole-4-carboxamide] | – | – | 0.0485 | –
COc1cc(OC)c(F)c(COc2nsc(NC(=O)NCCCN3CCN(C)CC3)c2C(N)=O)c1F [Compound T117, 3-[(2,6-difluoro-3,5-dimethoxy-phenyl)methoxy]-5-[3-(4-methylpiperazin-1-yl)propylcarbamoylamino]isothiazole-4-carboxamide] | – | 2.54 | 0.0207 | > 60000
COc1cc(OC)c(F)c(COc2nsc(NC(=O)NCCCCN3CC[C@H](O)C3)c2C(N)=O)c1F [Compound T136, 3-[(2,6-difluoro-3,5-dimethoxy-phenyl)methoxy]-5-[4-[(3S)-3-hydroxypyrrolidin-1-yl]butylcarbamoylamino]isothiazole-4-carboxamide] | – | 1.8 | 0.0285 | > 60000
COc1cc(OC)c(F)c(COc2nsc(NC(=O)NCCCCN3CCCC3)c2C(N)=O)c1F [Compound T137, 3-[(2,6-difluoro-3,5-dimethoxy-phenyl)methoxy]-5-(4-pyrrolidin-1-ylbutylcarbamoylamino)isothiazole-4-carboxamide] | – | 2.1 | 0.0446 | > 60000
COc1cc(OC)c(F)c(COc2nsc(NC(=O)NCCCC3CCCN3C)c2C(N)=O)c1F (centres unmarked) [Compound T138, 3-[(2,6-difluoro-3,5-dimethoxy-phenyl)methoxy]-5-[3-(1-methylpyrrolidin-2-yl)propylcarbamoylamino]isothiazole-4-carboxamide] | – | 2.6 | 0.0398 | > 60000
CN1CCN(CCCNC(=O)Nc2snc(OCc3cc(C(=O)NC4CC4)ccc3Cl)c2C(N)=O)CC1 [Compound T140, 3-[[2-chloro-5-(cyclopropylcarbamoyl)phenyl]methoxy]-5-[3-(4-methylpiperazin-1-yl)propylcarbamoylamino]isothiazole-4-carboxamide] | – | 0.44 | 0.0726 | 15500
NC(=O)c1c(OCc2ccc(F)c(C(=O)NC3CC3)c2)nsc1NC(=O)NCCCCN1CC[C@@H](O)C1 [Compound T150, 3-[[3-(cyclopropylcarbamoyl)-4-fluoro-phenyl]methoxy]-5-[4-[(3R)-3-hydroxypyrrolidin-1-yl]butylcarbamoylamino]isothiazole-4-carboxamide] | – | 1.2 | – | 7420
CC(=O)N1CCN(CCCNC(=O)Nc2snc(OCc3ccc(F)c(C(=O)NC4CC4)c3)c2C(N)=O)CC1 [Compound T157, 5-[3-(4-acetylpiperazin-1-yl)propylcarbamoylamino]-3-[[3-(cyclopropylcarbamoyl)-4-fluoro-phenyl]methoxy]isothiazole-4-carboxamide] | – | 2.5 | – | 15200
NC(=O)c1c(OCc2cc(C(=O)NC3CC3)ccc2F)nsc1N [Compound T159, 5-amino-3-[[5-(cyclopropylcarbamoyl)-2-fluoro-phenyl]methoxy]isothiazole-4-carboxamide] | – | 41.7 | – | 8770
NC(=O)c1c(OCc2ccc(F)c(C(=O)NC3CC3)c2)nsc1NC(=O)NCCCN1CCNCC1 [Compound T160, 3-[[3-(cyclopropylcarbamoyl)-4-fluoro-phenyl]methoxy]-5-(3-piperazin-1-ylpropylcarbamoylamino)isothiazole-4-carboxamide] | 4270 | 1.41 | – | –
CCN1CCN(CCCNC(=O)Nc2snc(OCc3cc(C(=O)NC4CC4)ccc3F)c2C(N)=O)CC1 [Compound T163, 3-[[5-(cyclopropylcarbamoyl)-2-fluoro-phenyl]methoxy]-5-[3-(4-ethylpiperazin-1-yl)propylcarbamoylamino]isothiazole-4-carboxamide] | – | 0.32 | – | 11200
CCN1CCN(CCCNC(=O)Nc2snc(OCc3ccc(F)c(C(=O)NC4CC4)c3)c2C(N)=O)CC1 [Compound T164, 3-[[3-(cyclopropylcarbamoyl)-4-fluoro-phenyl]methoxy]-5-[3-(4-ethylpiperazin-1-yl)propylcarbamoylamino]isothiazole-4-carboxamide] | – | 1.25 | – | 12200
NC(=O)c1c(OCc2ccc(F)c(C(=O)NC3CC3)c2)nsc1NC(=O)NCCCN1CCN(C2CC2)CC1 [Compound T165, 3-[[3-(cyclopropylcarbamoyl)-4-fluoro-phenyl]methoxy]-5-[3-(4-cyclopropylpiperazin-1-yl)propylcarbamoylamino]isothiazole-4-carboxamide] | – | 1.46 | – | 31600
CC(C)(C)OC(=O)CCNC(=O)Nc1snc(OCc2cc(C(=O)NC3CC3)ccc2F)c1C(N)=O [Compound T173, Tert-butyl 3-[[4-carbamoyl-3-[[5-(cyclopropylcarbamoyl)-2-fluoro-phenyl]methoxy]isothiazol-5-yl]carbamoylamino]propanoate] | – | 1.97 | – | 5910

From patent US20260217698A1 (BEYANG THERAPEUTICS CO., LTD., priority 2022, published 2026)
